Assay results as given in patent EP0097468A2, “Thio-naphthotriazoles, methods for producing them and their use in treating allergic diseases” (BEECHAM GROUP PLC, priority 1982, dated 1984).

Tested on: rat PCA
Assay: Passive cutaneous anaphylaxis (PCA) in rats
Assay type: in vivo
Conditions: iv, PBS with NaHCO3, time 0 mins before antigen challenge
Description: Serum containing heat labile homocytotropic antibody was raised in rats to crystallised ovalbumin (Grade 3 Sigma) by the Method of I.Mota (Immunology 7, 681 (1964)) using Bordetella pertussis vaccine ([…] Burroughs Welcome) as adjuvant.
Passive cutaneous anaphylaxis (PCA) was carried out by a method based on that of Ovary and Bier, (Proc. Soc. Exp. Bio. Med., 81, 584 (1952)) as modified by Goose and Blair (Immunology, 16, 749 (1969)) Male Sprague Dawley rats 230-340 gm were given 0.1 ml of each of six two fold serial dilutions of pooled antiserum in 0.9% saline (Polyfusor Boots) injected intradermally into separate sites on their shaved backs. 72 hours later the rats were challenged by intravenous injection of 0.3 ml of a 1% solution of ovalbumin in isotonic saline buffered with 0.05M, pH 7.2 Sorenson'Buffer (Bactohaemagglutination buffer Difco Laboratories), mixed with 0,2 ml of a 5% solution of Pontamine Sky Blue (6 BX C.l. 24410 Raymond A Lamb) in isotonic saline. The rats were killed after 20 minutes and the diameter of the blue wheals at the antibody injection sites was measured on the outer surface of the skin. The starting dilution of the serum was adjusted so that there was no response, after challenge, at the injection site of the highest dilution and a maximum response at the lowest dilutions. Typically, six twofold serial dilutions of the serum from 1/4 to 1/128 were used.
Compounds were tested for their ability to reduce the diameter of the wheals at those intradermal sites which in control animals gave less than maximum response. Each dose of the compounds was administered to six rats at a measured time prior to intravenous challenge with ovalbumin. Control groups of six rats were given the same volume (0.2 ml: 100g-^1) of carrier fluid at the same time prior to the challenge.
The results were calculated as follows: % inhibition of PCA = 100 (1 - a/b) where a = the sum of the diameters of the wheals produced in the test animal at the sites of antibody dilutions as used in control groups and b = the mean sum of the diameters of the wheals produced in the control group of animals at those antibody sites where at least five out of six of the animals gave less than maximum response. A typical variation in the control group of animals was SEM± 6%.

Structure (SMILES)	inhibition in vivo at 0.5 mg/kg [%]	inhibition in vivo at 1 mg/kg [%]	inhibition in vivo at 10 mg/kg [%]	also measured
CSc1cccc2c1C(=O)c1nn[nH]c1C2=O [Example 1, 4,9-Dihydro-4,9-dioxo-5-methylthio-lH-naphtho [2,-3-d]-v-triazole]	35	68	–	inhibition in vivo at 0.25 mg/kg: 23%
CCSc1cccc2c1C(=O)c1nn[nH]c1C2=O [Example 2, 4,9-Dihydro-4,9-dioxo-5-ethylthio-1H-naphtho[2,3-d]-v-triazole]	40	–	–	inhibition in vivo at 0.125 mg/kg: 31%; inhibition in vivo at 0.25 mg/kg: 27%
C[S+]([O-])c1cccc2c1C(=O)c1nn[nH]c1C2=O (stereo not shown) [Example 3, 4,9-Dihydro-4,9-dioxo-5-methylsulphinyl-lH-naphtho-[2,3-d]-v-triazole]	84	–	–	inhibition in vivo at 0.0625 mg/kg (0.0625 mg/kg): 35%; inhibition in vivo at 0.125 mg/kg: 56%; inhibition in vivo at 0.25 mg/kg: 79%
CS(=O)(=O)c1cccc2c1C(=O)c1nn[nH]c1C2=O [Example 4, 4,9-Dihydro-4,9-dioxo-5-methylsulphonyl-lH-naphtho-[2,3-d]-v-triazole]	–	44	88	–
CC[S+]([O-])c1cccc2c1C(=O)c1nn[nH]c1C2=O (stereo not shown) [Example 5, 4,9-dihydro-4,9-dioxo-5-ethysulphinyl-1H-naphtho[2,3-d]-v-triazole]	39	–	–	inhibition in vivo at 0.1 mg/kg: 65%
CCS(=O)(=O)c1cccc2c1C(=O)c1nn[nH]c1C2=O [Example 6, 4,9-Dihydro-4,9-dioxo-5-ethylsulphonyl-lH-naphtho[2,3-dl-v-triazole]	–	39	82	–
CCCSc1cccc2c1C(=O)c1nn[nH]c1C2=O [Example 7, 4,9-Dihyciro-4,9-dioxo-5-propylthio-1H-naphtho[2,3-d]-y-triazole]	68	–	–	inhibition in vivo at 5 mg/kg: 88%
CCC[S+]([O-])c1cccc2c1C(=O)c1nn[nH]c1C2=O (stereo not shown) [Example 8, 4,9-Dihydro-4,9-dioxo-5-propylsulphinyl-1H-naphtho[2,3-d] -v-triazole]	88	–	–	inhibition in vivo at 0.1 mg/kg: 74%
CCCS(=O)(=O)c1cccc2c1C(=O)c1nn[nH]c1C2=O [Example 9, 4,9-Dihydro-4,9-dioxo-5-propylsulphonyl-1H-naphtho[2,3-d] -v-triazole]	–	51	87	–
CSc1c(C)c(C)cc2c1C(=O)c1nn[nH]c1C2=O [Example 10, 6,7-Dimethyl-4,9-dihydro-4,9-dioxo-5-methylthio-1H-naphtho[2,3-d]-v-triazole]	71	–	–	inhibition in vivo at 5 mg/kg: 94%
Cc1cc2c(c([S+](C)[O-])c1C)C(=O)c1nn[nH]c1C2=O (stereo not shown) [Example 11, 6,7-Dimethyl-4,9-dihydro-4,9-dioxo-5-methylsulphinyl-1H-naphtho [2,3-d]-v-triazole]	88	–	–	inhibition in vivo at 0.1 mg/kg: 50%
Cc1cc2c(c(S(C)(=O)=O)c1C)C(=O)c1nn[nH]c1C2=O [Example 12, 6,7-Dimethyl-4,9-dihydro-4,9-dioxo-5-methylsulphonyl-1H-na^phtho [2,3-d]-v-triazole]	–	92	92	–
